Experimental data taken from US9302999B2, “Substituted triazoles as herbicides” (E. I. DU PONT DE NEMOURS AND COMPANY, priority 2012, dated 2016).

Experiments:
Type in all cases: in vivo
[1] = system: velvetleaf (Abutilon theophrasti); assay: Test C pre-/postemergence: velvetleaf
Outline: (§1)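 Preemergence on seeds in loam/sand, postemergence on 2–18 cm (1–4-leaf) plants in peat-based medium; compounds in non-phytotoxic solvent with surfactant. After 13–15 days in greenhouse, visual rating versus controls, 0 (no effect) to 100 (complete control).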

[2] = system: winter wheat (Triticum aestivum); assay: Test C pre-/postemergence: winter wheat
Outline: as §1

[3] = system: pigweed (Amaranthus retroflexus); assay: Test C pre-/postemergence: pigweed
Outline: as §1

[4] = system: johnsongrass (Sorghum halepense); assay: Test C pre-/postemergence: johnsongrass
Outline: as §1

rice (Oryza sativa) = assay: Test B flooded paddy: rice; conditions: Flood; 250 g ai/ha; applied to paddy water at 2-leaf stage; visually evaluated after 13 to 15 days
Outline: (§2)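 Plants were grown to the 2-leaf stage and pots flooded to 3 cm above soil. Compounds were applied directly into the paddy water, with depth kept for the test. After 13–15 days in greenhouse, response was rated visually against controls on a 0 (no effect) to 100 (complete control) scale.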

[5] = system: foxtail, giant (giant foxtail, Setaria faberii); assay: Test C pre-/postemergence: foxtail, giant
Outline: as §1

[6] = system: blackgrass (Alopecurus myosuroides); assay: Test C pre-/postemergence: blackgrass
Outline: as §1

kochia (Kochia scoparia) = assay: Test C pre-/postemergence: kochia; conditions: Postemergence
Outline: as §1

[7] = system: barnyardgrass (Echinochloa crus-galli); assay: Test B flooded paddy: barnyardgrass; conditions: Flood; 250 g ai/ha; applied to paddy water at 2-leaf stage; visually evaluated after 13 to 15 days
Outline: as §2

soybean (Glycine max) = assay: Test C pre-/postemergence: soybean
Outline: as §1

corn (Zea mays) = assay: Test C pre-/postemergence: corn
Outline: as §1

[8] = Postemergence, 31 g ai/ha, scale 0 to 100 (0 no effect, 100 complete control)
[9] = Postemergence, 62 g ai/ha, scale 0 to 100 (0 no effect, 100 complete control)
[10] = Postemergence, 125 g ai/ha, scale 0 to 100, 0 no effect, 100 complete control
[11] = Postemergence, 250 g ai/ha, scale 0 to 100 (0 no effect, 100 complete control)
[12] = Preemergence, 31 g ai/ha, scale 0 (no effect) to 100 (complete control)
[13] = Preemergence, 62 g ai/ha, scale of 0 to 100, 0 is no effect, 100 is complete control
[14] = Preemergence, 125 g ai/ha, scale 0 to 100, 0 no effect, 100 complete control
[15] = Preemergence, 250 g ai/ha, scale 0 to 100, 0 no effect, 100 complete control
[16] = Postemergence, 250 g ai/ha, scale 0 to 100
[17] = 31 g ai/ha, scale 0 to 100 (0 no effect, 100 complete control)
[18] = 62 g ai/ha, scale 0 to 100 (0 no effect, 100 complete control)
[19] = 125 g ai/ha, scale 0 to 100, 0 no effect, 100 complete control
[20] = 250 g ai/ha, scale 0 to 100 (0 no effect, 100 complete control)

CCc1nn(-c2ccc(C(F)(F)F)cc2)nc1Oc1ccnc(C(F)(F)F)c1 [Compound 169]
Plant response rating, Velvetleaf [1, 8]: 50 | Plant response rating, Velvetleaf [1, 9]: 65 | Plant response rating, Velvetleaf [1, 10]: 75 | Plant response rating, Velvetleaf [1, 11]: 80 | Plant response rating, Velvetleaf [1, 12]: 50 | Plant response rating, Velvetleaf [1, 13]: 75 | Plant response rating, Velvetleaf [1, 14]: 75 | Plant response rating, Velvetleaf [1, 15]: 100 | Plant response rating, Wheat [2, 8]: 10 | Plant response rating, Wheat [2, 9]: 10 | Plant response rating, Wheat [2, 10]: 30 | Plant response rating, Wheat [2, 11]: 30 | Plant response rating, Wheat [2, 12]: 5 | Plant response rating, Wheat [2, 13]: 15 | Plant response rating, Wheat [2, 14]: 20 | Plant response rating, Wheat [2, 15]: 50 | Plant response rating, Pigweed [3, 8]: 95 | Plant response rating, Pigweed [3, 9]: 95 | Plant response rating, Pigweed [3, 10]: 100 | Plant response rating, Pigweed [3, 11]: 100 | Plant response rating, Pigweed [3, 12]: 100 | Plant response rating, Pigweed [3, 13]: 100 | Plant response rating, Pigweed [3, 14]: 100 | Plant response rating, Pigweed [3, 15]: 100 | Plant response rating, Johnsongrass [4, 8]: 15 | Plant response rating, Johnsongrass [4, 9]: 30 | Plant response rating, Johnsongrass [4, 10]: 35 | Plant response rating, Johnsongrass [4, 11]: 50 | Plant response rating, Johnsongrass [4, 12]: 20 | Plant response rating, Johnsongrass [4, 13]: 75 | Plant response rating, Johnsongrass [4, 14]: 95 | Plant response rating, Johnsongrass [4, 15]: 98 | Plant response rating, Rice (0 to 100 scale, 0 is no effect, 100 is complete control) (rice (Oryza sativa)): 55 | Plant response rating, Foxtail, Giant [5, 8]: 20 | Plant response rating, Foxtail, Giant [5, 9]: 65 | Plant response rating, Foxtail, Giant [5, 10]: 65 | Plant response rating, Foxtail, Giant [5, 16]: 90 | Plant response rating, Foxtail, Giant [5, 12]: 100 | Plant response rating, Foxtail, Giant [5, 13]: 100 | Plant response rating, Foxtail, Giant [5, 14]: 100 | Plant response rating, Foxtail, Giant [5, 15]: 100 | Plant response rating, Blackgrass [6, 8]: 5 | Plant response rating, Blackgrass [6, 9]: 15 | Plant response rating, Blackgrass [6, 10]: 35 | Plant response rating, Blackgrass [6, 16]: 50 | Plant response rating, Blackgrass [6, 12]: 80 | Plant response rating, Blackgrass [6, 13]: 90 | Plant response rating, Blackgrass [6, 14]: 95 | Plant response rating, Blackgrass [6, 15]: 95 | Plant response rating, Kochia (kochia (Kochia scoparia); [17]): 85 | Plant response rating, Kochia (kochia (Kochia scoparia); [18]): 90 | Plant response rating, Kochia (kochia (Kochia scoparia); [19]): 90 | Plant response rating, Kochia (kochia (Kochia scoparia); [20]): 90 | Plant response rating, Barnyardgrass (0 to 100 scale, 0 is no effect, 100 is complete control) [7]: 75 | Plant response rating, Soybean (soybean (Glycine max); [8]): 30 | Plant response rating, Soybean (soybean (Glycine max); [9]): 30 | Plant response rating, Soybean (soybean (Glycine max); [10]): 50 | Plant response rating, Soybean (soybean (Glycine max); [11]): 55 | Plant response rating, Soybean (soybean (Glycine max); [12]): 0 | Plant response rating, Soybean (soybean (Glycine max); [13]): 5 | Plant response rating, Soybean (soybean (Glycine max); [14]): 10 | Plant response rating, Soybean (soybean (Glycine max); [15]): 30 | Plant response rating, Corn (corn (Zea mays); [8]): 10 | Plant response rating, Corn (corn (Zea mays); [9]): 15 | Plant response rating, Corn (corn (Zea mays); [10]): 20 | Plant response rating, Corn (corn (Zea mays); [16]): 30 | Plant response rating, Corn (corn (Zea mays); [12]): 5 | Plant response rating, Corn (corn (Zea mays); [13]): 5 | Plant response rating, Corn (corn (Zea mays); [14]): 10 | Plant response rating, Corn (corn (Zea mays); [15]): 20

CCCc1nn(-c2ccc(C(F)(F)F)cc2)nc1Oc1ccnc(C(F)(F)F)c1 [Compound 170]
Plant response rating, Velvetleaf [1, 8]: 75 | Plant response rating, Velvetleaf [1, 9]: 85 | Plant response rating, Velvetleaf [1, 10]: 85 | Plant response rating, Velvetleaf [1, 11]: 90 | Plant response rating, Velvetleaf [1, 12]: 60 | Plant response rating, Velvetleaf [1, 13]: 100 | Plant response rating, Velvetleaf [1, 14]: 100 | Plant response rating, Velvetleaf [1, 15]: 100 | Plant response rating, Wheat [2, 8]: 10 | Plant response rating, Wheat [2, 9]: 20 | Plant response rating, Wheat [2, 10]: 35 | Plant response rating, Wheat [2, 11]: 35 | Plant response rating, Wheat [2, 12]: 10 | Plant response rating, Wheat [2, 13]: 40 | Plant response rating, Wheat [2, 14]: 60 | Plant response rating, Wheat [2, 15]: 60 | Plant response rating, Pigweed [3, 8]: 100 | Plant response rating, Pigweed [3, 9]: 100 | Plant response rating, Pigweed [3, 10]: 100 | Plant response rating, Pigweed [3, 11]: 100 | Plant response rating, Pigweed [3, 12]: 100 | Plant response rating, Pigweed [3, 13]: 100 | Plant response rating, Pigweed [3, 14]: 100 | Plant response rating, Pigweed [3, 15]: 100 | Plant response rating, Johnsongrass [4, 8]: 20 | Plant response rating, Johnsongrass [4, 9]: 25 | Plant response rating, Johnsongrass [4, 10]: 80 | Plant response rating, Johnsongrass [4, 11]: 98 | Plant response rating, Johnsongrass [4, 12]: 50 | Plant response rating, Johnsongrass [4, 13]: 75 | Plant response rating, Johnsongrass [4, 14]: 95 | Plant response rating, Johnsongrass [4, 15]: 95 | Plant response rating, Rice (0 to 100 scale, 0 is no effect, 100 is complete control) (rice (Oryza sativa)): 60 | Plant response rating, Foxtail, Giant [5, 8]: 55 | Plant response rating, Foxtail, Giant [5, 9]: 80 | Plant response rating, Foxtail, Giant [5, 10]: 98 | Plant response rating, Foxtail, Giant [5, 16]: 98 | Plant response rating, Foxtail, Giant [5, 12]: 98 | Plant response rating, Foxtail, Giant [5, 13]: 100 | Plant response rating, Foxtail, Giant [5, 14]: 100 | Plant response rating, Foxtail, Giant [5, 15]: 100 | Plant response rating, Blackgrass [6, 8]: 10 | Plant response rating, Blackgrass [6, 9]: 10 | Plant response rating, Blackgrass [6, 10]: 60 | Plant response rating, Blackgrass [6, 16]: 70 | Plant response rating, Blackgrass [6, 12]: 90 | Plant response rating, Blackgrass [6, 13]: 95 | Plant response rating, Blackgrass [6, 14]: 100 | Plant response rating, Blackgrass [6, 15]: 100 | Plant response rating, Kochia (kochia (Kochia scoparia); [17]): 90 | Plant response rating, Kochia (kochia (Kochia scoparia); [18]): 90 | Plant response rating, Kochia (kochia (Kochia scoparia); [19]): 90 | Plant response rating, Kochia (kochia (Kochia scoparia); [20]): 90 | Plant response rating, Barnyardgrass (0 to 100 scale, 0 is no effect, 100 is complete control) [7]: 80 | Plant response rating, Soybean (soybean (Glycine max); [8]): 30 | Plant response rating, Soybean (soybean (Glycine max); [9]): 70 | Plant response rating, Soybean (soybean (Glycine max); [10]): 90 | Plant response rating, Soybean (soybean (Glycine max); [12]): 5 | Plant response rating, Soybean (soybean (Glycine max); [13]): 5 | Plant response rating, Soybean (soybean (Glycine max); [14]): 20 | Plant response rating, Soybean (soybean (Glycine max); [15]): 45 | Plant response rating, Corn (corn (Zea mays); [8]): 15 | Plant response rating, Corn (corn (Zea mays); [9]): 25 | Plant response rating, Corn (corn (Zea mays); [10]): 30 | Plant response rating, Corn (corn (Zea mays); [16]): 30 | Plant response rating, Corn (corn (Zea mays); [12]): 5 | Plant response rating, Corn (corn (Zea mays); [13]): 10 | Plant response rating, Corn (corn (Zea mays); [14]): 15 | Plant response rating, Corn (corn (Zea mays); [15]): 60
